# Assay results published in PubChem BioAssay AID1259375 (The Scripps Research Institute Molecular Screening Center, 2018).
# Calls of active or inactive are those of the source. How the calls were made is not given here.
# Molecular target: Microphthalmia-associated transcription factor (Homo sapiens) (UniProt O75030)
# Assay: MITF inhibitors by FRET titration, dose response, biochemical, high throughput (AID 1259375);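 further: FRET between CFP-tagged and YFP-tagged MITF protein partners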
# Conditions: FRET biochemical assay, MITF inhibition
# Sequence of Microphthalmia-associated transcription factor (Homo sapiens) (O75030 whole entry, looked up): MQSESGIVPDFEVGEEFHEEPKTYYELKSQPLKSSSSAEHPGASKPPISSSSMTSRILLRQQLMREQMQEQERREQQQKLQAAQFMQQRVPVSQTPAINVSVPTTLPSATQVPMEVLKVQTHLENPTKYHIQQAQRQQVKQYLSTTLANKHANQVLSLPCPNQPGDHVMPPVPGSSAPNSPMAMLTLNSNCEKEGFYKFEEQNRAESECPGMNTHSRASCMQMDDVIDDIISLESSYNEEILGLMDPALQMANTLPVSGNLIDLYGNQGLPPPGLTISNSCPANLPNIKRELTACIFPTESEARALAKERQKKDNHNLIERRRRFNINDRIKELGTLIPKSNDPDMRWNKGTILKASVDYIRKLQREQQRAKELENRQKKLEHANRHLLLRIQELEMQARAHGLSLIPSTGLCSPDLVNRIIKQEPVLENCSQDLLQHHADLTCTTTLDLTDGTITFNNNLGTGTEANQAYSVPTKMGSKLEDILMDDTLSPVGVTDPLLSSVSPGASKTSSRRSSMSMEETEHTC
row,SMILES,IC50
1,N#Cc1c(-c2ccc3c(c2)OCO3)nc(N2CCCCC2)[nH]c1=O,> 6.48 µM (inactive)
2,C/C(=N\Nc1ccc(S(=O)(=O)O)cc1)c1cccc(Br)c1,> 6.48 µM (inactive)
3,CN(C)[C@@H]1C(=O)C(C(=O)NCN2CCCC2)=C(O)[C@@]2(O)C(=O)C3=C(O)c4c(O)cccc4[C@@](C)(O)[C@H]3C[C@@H]12,> 6.48 µM (inactive)
4,COc1ccc(C)cc1NS(=O)(=O)c1ccc2c(c1)CCC(=O)N2,> 6.48 µM (inactive)
5,CC1=NN(c2ccc(C(=O)O)c(N)c2)C(=O)C1,> 6.48 µM (inactive)
6,CC(O)C(=O)N/N=C/C=C/c1ccc([N+](=O)[O-])o1 (configuration not stated),> 7.17 µM (inactive)
7,CCOc1ccc(CN2CCN(Cc3cccnc3)CC2)cc1,> 5.78 µM (inactive)
8,C/C=C\C1=C(C(=O)O)N2C(=O)C(NC(=O)C(N)c3ccc(O)cc3)C2SC1 (configuration not stated),> 6.48 µM (inactive)
9,O=C(OC1(C(F)(F)F)C(=O)Nc2cc3c(cc21)OCO3)c1ccc(Cl)nc1 (configuration not stated),3.84 µM
10,Cc1cc(O)c2c(c1)Cc1cccc(O)c1C2=O,> 6.48 µM (inactive)
11,C/C(N)=C(/C#N)C(=O)COC(=O)c1c2c(nc3ccccc13)/C(=C/c1ccco1)CC2,> 6.27 µM (inactive)
12,NC(=O)c1ccc(-c2cccs2)s1,> 7.32 µM (inactive)
13,C=CCc1cc(C)ccc1OCCCCn1ccnc1,> 6.48 µM (inactive)
14,CN(C)CCS(=O)c1cc(-c2cn[nH]c2)ccc1NC(=O)[C@@H]1Cc2cc(F)ccc2CN1 (some centres not stated),> 6.48 µM (inactive)
15,O=C(Nc1ccc(C(=O)Nc2ccc(C(=O)Nc3ccc(S(=O)(=O)O)c4cc(S(=O)(=O)O)cc(S(=O)(=O)O)c34)cc2)cc1)Nc1ccc(C(=O)Nc2ccc(C(=O)Nc3ccc(S(=O)(=O)O)c4cc(S(=O)(=O)O)cc(S(=O)(=O)O)c34)cc2)cc1,> 6.48 µM (inactive)
16,CC(C)C[C@H]1NC(=O)[C@H]2CN(C(=O)NC3CCCCC3)CCN2C1=O,> 6.48 µM (inactive)
17,CCN(CC)c1ncnc2c1ncn2[C@@H]1O[C@H](COP(=O)(O)OP(=O)(O)C(Br)(Br)P(=O)(O)O)C(O)[C@@H]1O (some centres not stated),> 6.48 µM (inactive)
18,N#Cc1cc([N+](=O)[O-])ccc1NC(=O)COC(=O)c1cc(-c2ccco2)nc2ccccc12,> 7.03 µM (inactive)
19,CN1CC(=O)N2CCN(C(=O)NC3CCCCC3)C[C@@H]2C1=O,> 6.48 µM (inactive)
20,C[C@H]1C(=O)N2CCN(C(=O)NC3CCCCC3)C[C@@H]2C(=O)N1C,> 6.48 µM (inactive)
21,O=c1c2ccccc2nc(-c2ccccc2)n1-c1ccccc1O,> 6.5 µM (inactive)
22,CN(C)C1C(=O)C(C(N)=O)=C(O)C2(O)C(=O)C3=C(O)c4c(O)cccc4C(C)(O)C3CC12 (configuration not stated),> 6.48 µM (inactive)
23,Nc1ccc(NCCO)c(N)c1,> 5.9 µM (inactive)

row,SMILES,IC50
1,CC(=O)CC1=C(C(=O)O)N2C(=O)C(N)C2SC1 (configuration not stated),> 6.48 µM (inactive)
2,Cc1cc(OCCOCCN2CCNCC2)ccc1Cl,> 6.48 µM (inactive)
3,O=C(Nc1ccc(N2CCOCC2)cc1)c1ccnc(Nc2ncccn2)c1,> 7.06 µM (inactive)
4,Brc1c(OCCN2CCNCC2)ccc2ccccc12,> 6.48 µM (inactive)
5,CN(C)/C=C/C=C/C(=O)c1cccc(C(=O)/C=C/C=C/N(C)C)c1O,> 6.48 µM (inactive)
6,C[C@@H](O)[C@@H]1NC(=O)[C@H]2CN(C(=O)NC3CCCCC3)CCN2C1=O,> 6.48 µM (inactive)
7,Cc1cc2ncn(Cc3noc(-c4ccco4)n3)c2cc1C,> 6.48 µM (inactive)
8,C=CCc1cc(Cl)ccc1OCCOCCNCCOC,> 6.48 µM (inactive)
9,Cc1ccc(/C=C/C(=O)NCc2ccccn2)o1,> 6.48 µM (inactive)
10,NC(=O)c1cncc(-c2cccs2)c1,> 6.5 µM (inactive)
11,COC(=O)c1ccc(=O)c2nc3/c(=C/O)c(O)cc(=O)c3[nH]c12,2.02 µM
12,COc1ccc2c3c(cccc13)C(=O)N(C)C2=O,> 6.48 µM (inactive)
13,CC[C@@H]1NC(=O)[C@H]2CN(C(=O)NC3CCCCC3)CCN2C1=O,> 6.48 µM (inactive)
14,NC(=O)n1c(CCC(=O)O)nc2sc3c(c2c1=O)CCC3,> 6.75 µM (inactive)
15,O=C(c1ccncc1)N1C2C=CC(C2)C1(C(F)(F)F)C(F)(F)F (configuration not stated),> 6.48 µM (inactive)
16,CCOc1ccccc1N1CCN(Cc2cc(OC)c(O)c([N+](=O)[O-])c2)CC1,> 6.48 µM (inactive)
17,CN1CCN(CCNC(=O)c2cccc(CN(C(=O)c3nc4ccc(-c5cn[nH]c5)cc4s3)C3CC3)c2)CC1,> 6.48 µM (inactive)
18,O=C1N[C@@H](Cc2ccc(O)cc2)C(=O)N2CCN(C(=O)NCc3ccccc3)C[C@H]12,> 6.48 µM (inactive)
19,O=C1N[C@@H](CC2CCCCC2)C(=O)N2CCN(C(=O)NCc3ccccc3)C[C@H]12,> 6.48 µM (inactive)
20,O=C1N[C@@H](CSCc2ccccc2)C(=O)N2CCN(C(=O)NC3CCCCC3)C[C@H]12,> 6.48 µM (inactive)
21,O=c1[nH]c(-c2ccco2)nc2sc3c(c12)CCCC3,> 9.74 µM (inactive)
22,CN(C)CCS(=O)c1cc(-c2cn[nH]c2)ccc1NC(=O)[C@H]1Cc2cc(F)ccc2CN1 (some centres not stated),> 6.48 µM (inactive)
23,Cc1ccc(NC(=O)COC(=O)CCC(=O)Nc2sc3c(c2C(N)=O)CCC3)cc1F,> 6.95 µM (inactive)

row,SMILES,IC50
1,Cc1sc2nc(C)n3c(=O)n(CC(=O)NCc4ccco4)nc3c2c1C,> 6.48 µM (inactive)
2,CNC(=O)Nc1ccc2nc(-c3ccco3)c(-c3ccco3)nc2c1,> 6.48 µM (inactive)
3,CCN(C(=O)C1COc2ccccc2O1)C12CC3CC(CC(C3)C1)C2 (configuration not stated),> 6.83 µM (inactive)
4,CN(C)c1ccc(O)c2c1C[C@H]1C[C@H]3[C@H](N(C)C)C(=O)C(C(N)=O)=C(O)[C@@]3(O)C(=O)C1=C2O,3.08 µM
5,Cc1cccc(CN2CCN(C3CCC(C)CC3)CC2)c1 (configuration not stated),> 5.54 µM (inactive)
6,c1coc(CNc2ccc3ncc(-c4ccco4)n3n2)c1,> 6.48 µM (inactive)
7,COC(=O)CN1C(=O)S/C(=C/c2ccc([N+](=O)[O-])o2)C1=O,> 6.48 µM (inactive)
8,Cc1ccc(N2C(=O)C3C(C2=O)C2(CO)C=CC3(C)O2)cc1[N+](=O)[O-] (configuration not stated),> 6.48 µM (inactive)
9,CCOC(=O)C1C2NC(=S)N(c3ccccc3)C1(C)Oc1cc(OC)ccc12 (configuration not stated),> 6.4 µM (inactive)
10,O=C(O)/C=C/c1ccc([N+](=O)[O-])o1,> 10.6 µM (inactive)
11,CC(C)N(C(=O)COC(=O)c1cc(-c2ccco2)nc2ccccc12)C(C)C,> 6.82 µM (inactive)
12,C[C@H](O)[C@H]1NC(=O)[C@H]2CN(C(=O)NCc3ccccc3)CCN2C1=O,> 6.48 µM (inactive)
13,CC[C@@H]1NC(=O)[C@H]2CN(C(=O)NCc3ccccc3)CCN2C1=O,> 6.48 µM (inactive)
14,COc1cc(OC)c(OC)cc1CN1CCN(Cc2ccc(C)cc2)CC1,> 5.76 µM (inactive)
15,S=c1[nH]nc(-c2cccnc2)n1/N=C/C=C/c1ccco1,> 6.48 µM (inactive)
16,N=C1S/C(=C\c2ccco2)C(=O)N1c1nonc1N,3.61 µM
17,O=C(O)c1cc(S(=O)(=O)Nc2ccc(-n3cnnn3)cc2)ccc1O,> 7.18 µM (inactive)
18,NC(=O)c1cccc(-c2cccs2)c1,> 6.74 µM (inactive)
19,COC(=O)CN(CCN(CC(=O)O)CC(=O)OC)CC(=O)O,> 5.37 µM (inactive)
20,O=C(NCc1cccnc1)c1cccc(-c2cccs2)c1,> 6.64 µM (inactive)
21,CN(C)CCn1nnnc1SCC1=C(C(=O)O)N2C(=O)[C@@H](NC(=O)Cc3csc(N)n3)[C@H]2SC1,> 6.48 µM (inactive)
22,Cc1oc(C(=O)O)cc1CSCCSCc1cc(C(=O)O)oc1C,> 6.48 µM (inactive)
23,Oc1ccc(CCNc2cc(-c3cccs3)ncn2)cc1,> 6.7 µM (inactive)

row,SMILES,IC50
1,COc1ccc2c(c1)CC(C(=O)Nc1ccc(-c3cn[nH]c3)cc1C(=O)N(C)OC)CO2 (configuration not stated),> 6.48 µM (inactive)
2,CCOC(=O)N1CCC(NC(=O)CCc2nc(C3=CCN(C)CC3)no2)CC1,> 6.48 µM (inactive)
3,Cc1ccc(S(=O)(=O)C(CNC(=O)c2ccco2)c2cccs2)cc1 (configuration not stated),> 6.56 µM (inactive)
4,O=C1N[C@@H](Cc2ccccc2)C(=O)N2CCN(C(=O)NCc3ccccc3)C[C@H]12,> 6.48 µM (inactive)
5,NC(=O)CSc1ccc(C(N)=O)cc1[N+](=O)[O-],> 7.11 µM (inactive)
6,CN(C)[C@@H]1C(=O)C(C(=O)NCN2CCCC2)=C(O)[C@@]2(O)C(=O)C3=C(O)c4c(O)cccc4[C@@](C)(O)C3CC12 (some centres not stated),> 6.48 µM (inactive)
7,Cc1ccc([N+](=O)[O-])cc1S(=O)(=O)Nc1ccc(Nc2ncccc2[N+](=O)[O-])cc1,> 6.64 µM (inactive)
8,COc1cc(CN2CCN(C3CCCC3)CC2)cc(OC)c1OC,> 6.48 µM (inactive)
9,CC(C)NC(=O)c1cccc(NC(=O)Nc2ccc(-c3ncnc4[nH]cc(Cl)c34)cc2)c1,> 6.48 µM (inactive)
10,O=C1Nc2ccc(S(=O)(=O)NCc3ccccc3)cc2C1=O,> 6.08 µM (inactive)
11,CC(C)C[C@@H]1NC(=O)[C@H]2CN(C(=O)NC3CCCCC3)CCN2C1=O,> 6.48 µM (inactive)
12,O=C1N[C@H](CO)C(=O)N2CCN(C(=O)NCc3ccccc3)C[C@H]12,> 6.48 µM (inactive)
13,O=C1N[C@H](Cc2ccccc2)C(=O)N2CCN(C(=O)NC3CCCCC3)C[C@H]12,> 6.48 µM (inactive)
14,O=C(NNC(=S)Nc1ccccc1)C(=O)NNC(=S)Nc1ccccc1,> 6.67 µM (inactive)
15,Cc1cc(/C=C2/C=CC(=O)O2)oc1C,> 7.29 µM (inactive)
16,O=C(O)c1cc2ncc(-c3n[nH]c(-c4cnc5cc(C(=O)O)nn5c4)c3[N+](=O)[O-])cn2n1,> 6.48 µM (inactive)
17,O=C(/C=C/c1ccco1)C1=C(O)C(=O)N(CCCN2CCOCC2)C1c1ccco1 (configuration not stated),> 6.48 µM (inactive)
18,O=C1N[C@@H](Cc2c[nH]c3ccccc23)C(=O)N2CCN(C(=O)NC3CCCCC3)C[C@H]12,> 6.48 µM (inactive)
19,O=C(Nc1ccc(Cl)cc1Cl)N1CCN2C(=O)[C@@H]3CSCN3C(=O)[C@H]2C1,> 6.48 µM (inactive)
20,O=C(Nc1ccc(Oc2ccccc2)cc1)c1ccnc(-c2cccs2)c1,> 6.71 µM (inactive)
21,Cc1ccc2[nH]c(=O)c(=O)[nH]c2c1,> 12.1 µM (inactive)
22,C=CCNCCOCCOc1ccc(OCC)cc1,> 6.48 µM (inactive)
23,Cc1ccc(CCC(=O)Nc2ccc(-c3cn4c5c(nnc4n3)CCCC5)cc2)o1,> 6.48 µM (inactive)
